Consider 19 compounds from patent US20040234517A1, “Compositions and methods for diagnosing and treating asthma or other allergic or inflammatory diseases” (WYETH, priority 2003, published 2004).

Assay [1] has as its target T1, arginase (Homo sapiens, UniProt P05089).
T1 sequence (P05089 1-322): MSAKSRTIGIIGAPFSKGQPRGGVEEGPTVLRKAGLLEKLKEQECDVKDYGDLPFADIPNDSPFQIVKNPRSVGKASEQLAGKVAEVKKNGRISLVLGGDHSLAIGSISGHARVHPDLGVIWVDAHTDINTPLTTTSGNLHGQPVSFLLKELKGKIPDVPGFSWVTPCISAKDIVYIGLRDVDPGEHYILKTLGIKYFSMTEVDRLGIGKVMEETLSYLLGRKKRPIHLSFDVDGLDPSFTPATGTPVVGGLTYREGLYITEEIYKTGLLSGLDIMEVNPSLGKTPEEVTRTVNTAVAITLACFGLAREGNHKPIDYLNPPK
As to conditions: cited from earlier work; for Ki: competitive inhibitors of arginase.

Assay [2] deals with RAW264.7 murine macrophage cells. Kind of assay: urea production in RAW264.7 cells treated with LPS and IL-13. The assay is classed as cell-based. As to conditions: 20 mM lysine; LPS/IL-13 treated RAW264.7; 400 μM arginine, 24 hour incubation. As to the method:
Briefly, RAW264.7 macrophages exposed to media alone (Control) or CAT2-inducing conditions (LPS/IL-13) for 24 hours were then equilibrated for 2 hours in Arginine Transport Buffer. After a 24 hour incubation in the presence or absence of competing L-lysine in Arginine Transport Buffer containing a final arginine concentration of 400 μM, urea production was evaluated as described in Example 4. Urea production is expressed as μg of urea in the supernatant/mg of cell lysate protein.
RAW264.7 macrophages were stimulated in 24-well plates as for arginine transport studies (above). After 20 hours of stimulation, the cells were washed three times with Arg Wash Buffer #1 and then an additional four times with Arg Transport Buffer. […] Supernatants were clarified by centrifugation at 12,000 rpm for 10 minutes and 100 μl assayed for urea in triplicate using a UV absorbance kit method (R-Biopharma) following the manufacturer's instructions with the exception that it was performed at 1/10 scale in a 96-well assay plate with a total volume of 300 μl/well. Cells were lysed with 500 μl of 1.0% SDS in 10 mM HEPES, pH 7.4 and the protein quantitated using the Micro-BCA kit (Pierce). Urea production was expressed as μg urea/mg protein lysate.

Assay [3] relates to CAT2. Kind of assay: arginine uptake in RAW264.7 cells treated with LPS and IL-13. In kind it is cell-based, murine. As to conditions: 20 mM lysine; Control and LPS/IL-13 treated RAW264.7 cells; 100 μM arginine, three minutes. As to the method:
Briefly, RAW264.7 cells were exposed to media alone (Control) or CAT2-inducing conditions (LPS/IL-13) for 24 hours and were then evaluated for arginine transport over a three-minute period in a final arginine concentration of 100 μM.
RAW264.7 cells, at 1×10^6, were plated on 24-well tissue culture plates in 0.5 ml cDME. After adhering for 2 hours, 0.5 ml media containing LPS (Sigma) and/or rhIL13 (R&D Systems) was added for final concentrations of 1 μg/ml and 10 ng/ml, respectively. After 20 hours incubation at 37° C. in an atmosphere of 5% CO2 and 95% air, the cells were washed 3 times with Arg Wash Buffer #1 (140 mM choline chloride, 5 mM KCl, 0.9 mM CaCl2, 1 mM MgSO4, 5.6 mM glucose, and 25 mM HEPES, pH7.4), then an additional 4 times with Arg Transport Buffer (137 mM choline chloride, 5.4 mM KCl, 1.8 mM CaCl2, 1.2 mM MgSO4, 10 mM HEPES, adjusted to pH7.4). […] Non-saturable binding was quantitated by incubating a replicate well of each treatment with transport buffer containing […]. […] Protein quantitation was performed using a micro-BCA kit (Pierce) and 400 μl lysate suspended in 10 ml scintillation fluid, loaded into glass scintillation vials, and emissions counted for 1 minute. Specific Arginine Uptake was calculated as Saturable binding (CPM/mg protein 400 μM Arg)— Non-saturable binding (CPM/mg protein 5 mM Arg).

Assay [4] concerns rat tracheal explants. Kind of assay: carbachol-induced tracheal contraction. As to conditions: 100 mM lysine; preincubated 15 to 20 hours. As to the method:
Briefly, rat tracheal explants were preincubated for 15 to 20 hours with either media or media containing 100 mM L-lysine. The trachea were then washed and contraction measured in a Krebs-Henseleit solution in the presence or absence of 100 mM L-lysine.
Rats between 8-10 weeks of age were used for this experiment. Trachea were rapidly excised and cleaned of adherent connective tissue. […] Composition (mM) of the medium included 0.1 nonessential amino acids, 4% FBS, 2.0 glutamine, 0.05β-mercaptoethanol, 100 U/ml penicillin/100 μg/ml streptomycin.
Trachea were supported longitudinally by a rod with a stainless steel pin into the base of a double-jacketed, glass organ bath filled with 15 ml of Krebs-Henseleit (K-H) solution (37° C.) of the following composition (mM): 118 NaCl; 4.7 KCl; 1.2 KH2PO4; 11.1 Dextrose; 1.2 MgSO4; 2.8 CaCl2; and 25 NaHCO3. The solution was continuously gassed with a 5% CO2 and 95% O2 mixture for the duration of each experiment. The upper support was attached by a loop of silk thread to a TSD125 force transducer. […]
At the end of each experiment, all trachea were blotted on a gauze pad and weighted. Tensions were calculated as milligram tensions per milligram weight (mg/mg) and expressed as an individual percentage (%) of 10^−5 M carbachol-evoked force of the trachea in the absence of the drugs. All values were expressed as Mean ± SE. […]

Assay [5] concerns the target rat liver arginase (RLA) (Rattus norvegicus, UniProt P07824). As to conditions: cited from earlier work; for IC50: read-out: IC50 towards RLA.
The target of assay [6] is IL-13 (murine, endogenous in OVA-challenged Balb/c mice) (mouse) (UniProt P20109). Description: cell-based or functional assay.
For assay [7], the target named is T2, liver arginase (Bos taurus, UniProt Q2KJ64).
T2 sequence (Q2KJ64 1-322): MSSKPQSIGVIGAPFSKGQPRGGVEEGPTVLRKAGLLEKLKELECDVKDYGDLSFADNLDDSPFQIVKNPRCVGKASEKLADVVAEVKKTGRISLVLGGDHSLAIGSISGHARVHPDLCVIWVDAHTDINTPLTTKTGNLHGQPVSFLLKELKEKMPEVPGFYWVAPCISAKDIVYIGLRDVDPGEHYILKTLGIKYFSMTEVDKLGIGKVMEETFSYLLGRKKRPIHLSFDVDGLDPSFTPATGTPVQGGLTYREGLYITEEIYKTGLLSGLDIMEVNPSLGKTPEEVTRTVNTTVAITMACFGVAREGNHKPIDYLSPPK
Conditions: cited from earlier work; for activity toward arginase: concentrations up to 2 mM.

The target in assay [8] is arginase. Conditions: cited from earlier work.
Assay [9] has as its system arginase. As to conditions: cited from earlier work. This is another data set of the same source.

Entries after “also recorded” stand apart in the source; their conditions may differ. Read-outs that look alike come from different tables or passages of the source.

rat liver arginase (RLA), sequence (P07824 whole entry): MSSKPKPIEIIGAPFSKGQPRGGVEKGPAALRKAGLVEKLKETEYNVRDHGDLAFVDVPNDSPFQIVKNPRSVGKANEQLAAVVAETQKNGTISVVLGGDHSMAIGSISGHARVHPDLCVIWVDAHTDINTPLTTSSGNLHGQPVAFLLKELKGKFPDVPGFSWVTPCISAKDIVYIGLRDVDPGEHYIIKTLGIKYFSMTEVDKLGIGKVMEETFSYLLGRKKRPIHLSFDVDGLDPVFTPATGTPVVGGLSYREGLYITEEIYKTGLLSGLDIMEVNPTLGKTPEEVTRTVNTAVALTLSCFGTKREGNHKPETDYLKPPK
IL-13 (murine, endogenous in OVA-challenged Balb/c mice) (mouse), sequence (P20109 19-131 limits assumed): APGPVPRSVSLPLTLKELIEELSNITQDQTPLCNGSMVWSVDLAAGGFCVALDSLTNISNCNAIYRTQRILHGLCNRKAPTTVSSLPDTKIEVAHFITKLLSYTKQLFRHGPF

For the compound `NCCC[C@H](N)C(=O)O` [L-omithine, L-ornithine], in assay [1], the Ki (usually the equilibrium dissociation constant of an inhibitor or competing ligand from its target) is 2 mM.
In the case of `O=C(O)CN(CCN(CC(=O)O)CC(=O)O)CC(=O)O` [EDTA], in [1], the “inhibition of arginase activity” value is “do not inhibit”.
`NCCCC[C@H](N)C(=O)O` [lysine]: in [2], the urea production entry was “inhibited”. The “arginine uptake / saturable arginine transport” value in assay [3] is reported as “inhibited; also recorded: abolished all saturable arginine transport”. Also, the “carbachol-induced rat tracheal contraction” value in assay [4] is “inhibited”.
As for `O=C(O)CC(O)(CC(=O)O)C(=O)O` [citrate], the “inhibition of arginase activity” value in assay [1] is reported as “do not inhibit”.
Consider `F` [F^−, fluoride], for which, in assay [5] (pH 7.4, uncompetitive towards L-Arg binding, reversible), the Ki was 1.3 mM. The IC50 (commonly the concentration that inhibits the measured activity by half) was 1.2 mM in [5] (pH 7) and 19 mM in assay [5] (pH 10).
Consider “soluble IL-13 receptor fusion protein sIL-13Rα2-Fc (from UniProt O88786 22-334) (Fc fusion)”, for which the inhibition of allergen-induced Arg1 mRNA expression in mouse lung (GeneChip, in vivo) in assay [6] was 67%.
Regarding `NC(=O)NCCC[C@H](N)C(=O)O` [L-Cit], in assay [7], the “effect on arginase relative to L-NOHA” value is listed as “much weaker inhibitors” and the activity toward arginase entry is “inactive”.
`OB(O)O` [borate]: the “inhibition of arginase activity” value in assay [1] is recorded as “S-hyperbolic I-hyperbolic non-competitive inhibitor”.
As to `O=[N+]([O-])O` [NO3^−], the “effect on arginase relative to L-NOHA” value in assay [7] is “without effect”.
On to `O=NO` [NO2^−], for which the “effect on arginase relative to L-NOHA” value in [7] is given as “without effect”.
As for `N=C(NO)NCCC[C@H](N)C(=O)O` [L-NOHA, N(omega)-Hydroxy-L-arginine], the Ki in assay [7] (arginase) is 0.15 mM. Also, the IC50 was 0.45 mM in assay [8] (murine macrophages (Buga et al.), read-out: IC50 arginase activity) and 0.4 mM in assay [8] (read-out: IC50 hydrolysis of L-arginine to L-ornithine, unstimulated murine macrophages (Tenu et al.)).
Consider `N=C(NO)c1ccc(CC(N)C(=O)O)cc1` (racemic) [4-hydroxyamidino-D,L-phenylalanine], for which the “inhibition of liver arginase and arginase in the alveolar macrophages” value in assay [9] is listed as “inhibit”.
Consider `NC(CCCCC(N)C(=O)O)=NO` (racemic) [N omega-hydroxy-D,L-indospicine], for which, in [9], the “inhibition of liver arginase and arginase in the alveolar macrophages” value is on record as “inhibit”.
Regarding `N=C(NO)NCCC[C@@H](N)C(=O)O` [D-NOHA], the “effect on arginase relative to L-NOHA” value in assay [7] is “much less active”.
For `N=C(N)N` [guanidinium chloride], the Ki in [1] is 100 mM.
For the compound `NO` [hydroxylamine], the activity toward arginase entry in assay [7] was “inactive”.
As for `NC(=O)NO` [hydroxyurea], the activity toward arginase entry in [7] is “inactive”.
Regarding `NC(N)=O` [urea], the activity toward arginase result in assay [7] is “inactive”.
On to `[N]=O` [NO, nitric oxide], for which the “effect on arginase relative to L-NOHA” value in assay [7] was “much weaker inhibitors”.
